From patent US20250270208A1, “BICYCLIC HETEROCYCLES AS MRGPRX2 ANTAGONISTS” (Incyte Corporation, priority 2023, published 2025)

Experiments:
Assay type in all cases: cell-based
MRGPRX2 [1] = biological target: T1, MRGPRX2 (Homo sapiens, UniProt Q96LB1); assay: MRGPRX2 FLIPR calcium mobilization assay; parameters: host or cells: CHO-K1; conditions: CHO-K1 cells stably expressing human MRGPRX2; Ca2+ release; agonist Cortistatin-14 at EC80
T1 sequence (Q96LB1 1-330): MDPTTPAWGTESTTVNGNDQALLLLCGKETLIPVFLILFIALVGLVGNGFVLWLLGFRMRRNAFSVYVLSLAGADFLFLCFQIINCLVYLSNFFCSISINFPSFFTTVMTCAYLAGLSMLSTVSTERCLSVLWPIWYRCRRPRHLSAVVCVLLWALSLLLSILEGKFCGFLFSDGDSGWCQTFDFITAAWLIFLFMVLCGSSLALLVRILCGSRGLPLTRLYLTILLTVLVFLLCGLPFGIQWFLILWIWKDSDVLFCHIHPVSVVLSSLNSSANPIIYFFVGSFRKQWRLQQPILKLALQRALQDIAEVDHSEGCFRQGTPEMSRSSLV
Procedure: Chinese hamster ovary (CHO-K1) cells stably expressing human MRGPRX2 were purchased from Genescript (Piscataway, NJ). The cells were maintained in culture medium (Ham's F-12K) containing 10% (v/v) FBS, 200 μg/mL Zeocin, 100 units/mL penicillin G and 100 μg/mL streptomycin (Life Technologies, Carlsbad, CA). For the assay, the cells were harvested and resuspended with culture medium without Zeocin before plating at 8000 cells per well in 20 μL in 384-well black clear bottom cell culture plates (VWR, Radnor, PA). After 24 hour culture at 37° C. and 5% CO2, the cells were loaded with 20 μL/well of calcium dye (FLIPR Calcium 6 Assay Kit, Molecular Devices, San Jose, CA) diluted in loading buffer (1× Hank's Balanced Salt Solution (HBSS), 5 mM probenecid, 20 mM 4-(2-hydroxyethyl)-1-piperazineethanesulfonic acid (HEPES), pH 7.4, VWR, Radnor, PA) followed with 45 min incubation at 37° C. and 40 min. at r.t. in the dark. Cells were then treated with the addition of 10 uL/well test compounds with a range of increasing concentrations diluted in the assay buffer (1×HBSS, 20 mM HEPES, pH 7.4, VWR, Radnor, PA) with FLIPR Penta (Molecular Devices. San Jose, CA) and incubated for 30 min. at r.t. Ca^2+ release was measured with FLIPR Penta with 10 s basal fluorescence measurement, then 12.5 μL of 5× agonist Cortistatin-14 (Tocris, Minneapolis, MN) at final concentration corresponding to the EC80 were added followed with continued fluorescence signal monitoring for an additional 110 s. The base line adjusted (median of first 10 s base line) max value of the Relative Fluorescence Unit (RFU) was plotted against compound concentrations. Wells with no compound were served as the positive controls, and wells with high concentration of reference antagonist were used as negative controls. IC50 curves were globally fitted with 3- or 4-parameter Hill equation in a Genedata Screener (Genedata Basel, Switzerland).

MRGPRX2 [2] = biological target: T1, MRGPRX2; assay: MRGPRX2 IP1 HTRF assay; parameters: host or cells: CHO-K1; conditions: CHO-K1 cells stably expressing human MRGPRX2; IP1 accumulation; agonist Cortistatin 14 1 μM
Procedure: This assay measures compound inhibition of myo-Inositol 1 phosphate (IP1) accumulation in CHO-K1 cells. Chinese hamster ovary (CHO-K1) cells stably expressing human MRGPRX2 were purchased from GenScript (Piscataway, NJ).
For the HTRF IP1 determination, an IP-One GqKit (Perkin Elmer Cisbio, Waltham, MA), which includes all reagents and buffers in this protocol, was used. The cells were maintained in culture medium (Ham's F-12K) containing 10% (v/v) FBS, and 200 μg/mL Zeocin. For the assay, the cells were harvested and resuspended in culture medium with 2% FBS and without Zeocin, then were passed through a 40 μm filter. Cells were added at 20000 cells in a 5 μL/well to a 384-well white small volume cell culture plate (Greiner VWR, Radnor, PA) which contained 50 nL/well of test compound serially diluted at a selected concentration range in DMSO. 5 μL/well of prepared 2× Stimulation Buffer 2 was then added to plates and was incubated at 37° C. with 5% CO2 for 1 h. 5 μL/well of agonist Cortistatin 14 (Bio-TechneR&D Systems, Minneapolis, MN) in 1× Stimulation Buffer 2, for a 1 μM final concentration, was then added to plates and incubated at 37° C. with 5% CO2 for 1 h. 6 μL/well of 1:20 diluted Detection Reagent Mix (d2 and Cryptate) was added to the plates and incubated for 1 h in the dark. Plates were read on the PHERAstar microplate reader (BMG Labtech Cary, NC) to determine the HTRF ratio of the acceptor and donor emission signals. The IP1 concentrations were calculated from a standard curve following the IP-One GQ kit instructions. Wells with DMSO only and wells with high concentration of reference antagonist were used as controls for normalization. Compound IC50 curves were globally fitted with 3- or 4-parameter Hill equation in a Genedata Screener (Genedata Basel, Switzerland).

MRGPRX2 [3] = biological target: T1, MRGPRX2; assay: MRGPRX2 β-Arrestin assay; parameters: host or cells: PathHunter CHO-K1; conditions: PathHunter CHO-K1 MRGPRX2 β-Arrestin cell line; agonist Cortistatin 14 0.25 μM
Description: This assay measures compound inhibition of β-Arrestin recruitment, which is part of the G protein-independent pathway that results from the ligand-activated GPCR phosphorylation by specific GPCR kinases. The PathHunter CHO-K1 MRPGRX2 β-Arrestin Cell line stably expressing ProLink tagged MRGPRX2 and Enzyme Acceptor Tagged β-Arrestin was purchased from Eurofins DiscoverX, (Fremont, CA).
The cells were maintained in culture medium from the Europhins DiscoverX Cell Culture Kit-107 which includes FBS, hygromycin B and G418. For the assay, the cells were harvested and were resuspended with Cell Plating Reagent 2 (Eurofins DiscoverX). Cells were added 10000 cells in 25 μL/well to a 384-well black cell culture plate (Greiner VWR, Radnor, PA) which contained 125 nL/well of compound at a selected serially diluted concentration range or DMSO. The plate was incubated at 37° C. with 5% CO2 for 1 h. 2 μL/well of agonist Cortistatin 14 was diluted in Protein Dilution Buffer, (Eurofins DiscoverX) for a final concentration of 0.25 μM, was added and the plate was incubated at 37° C. with 5% CO2 for 90 min. 14 μL/well of Detection Reagent Mix (PathHunter Detection Kit, Eurofins DiscoverX) was added to the plates and further incubated for 1 h in the dark. Plates were read on the PHERAstar microplate reader (BMG Labtech Cary, NC) measuring luminescence 0.1 to 1 s per well. Data was normalized using DMSO only wells and wells with high concentration of reference antagonist as controls. Compound IC50 curves were globally fitted with 3- or 4-parameter Hill equation in a Genedata Screener (Genedata Basel, Switzerland).

| SMILES | IC50 (MRGPRX2 [1]) | IC50 (MRGPRX2 [2]) | IC50 (MRGPRX2 [3]) |
| --- | --- | --- | --- |
| Cc1cc2c(N[C@@H]3CCC[C@H](Nc4cc(C(F)(F)F)nc5ccc(Cl)cc45)C3)nccn2n1 [Example 11, (1S,3R)-N^1-(6-Chloro-2-(trifluoromethyl)quinolin-4-yl)-N^3-(2-methylpyrazolo[1,5-a]pyrazin-4-yl)cyclohexane-1,3-diamine] | 0.1 to 100 nM | 0.1 to 100 nM | 0.1 to 100 nM |
| Cn1cnc2ccnc(N[C@@H]3CCC[C@H](Nc4cc(C(F)(F)F)nc5ccccc45)C3)c21 [Example 15, (1R,3S)-N^1-(3-Methyl-3H-imidazo[4,5-c]pyridin-4-yl)-N^3-(2-(trifluoromethyl)quinolin-4-yl)cyclohexane-1,3-diamine] | 0.1 to 100 nM | 100 to 1000 nM | 0.1 to 100 nM |
| Cn1cnc2ccnc(N[C@@H]3CCC[C@H](Nc4cc(C(F)(F)F)nc5ccc(Br)cc45)C3)c21 [Example 16, (1S,3R)-N^1-(6-Bromo-2-(trifluoromethyl)quinolin-4-yl)-N^3-(3-methyl-3H-imidazo[4,5-c]pyridin-4-yl)cyclohexane-1,3-diamine] | 0.1 to 100 nM | 0.1 to 100 nM | 0.1 to 100 nM |
| Cc1ccc2nc(C(F)(F)F)cc(N[C@H]3CCC[C@@H](Nc4nccc5ncn(C)c45)C3)c2c1 [Example 17, (1S,3R)-N^1-(6-Methyl-2-(trifluoromethyl)quinolin-4-yl)-N^3-(3-methyl-3H-imidazo[4,5-c]pyridin-4-yl)cyclohexane-1,3-diamine] | 0.1 to 100 nM | 0.1 to 100 nM | 0.1 to 100 nM |
| Cn1cnc2ccnc(N[C@H]3CC[C@@H](Nc4cc(C(F)(F)F)nc5ccccc45)CC3)c21 [Example 22, (1s,4s)-N^1-(3-Methyl-3H-imidazo[4,5-c]pyridin-4-yl)-N^4-(2-(trifluoromethyl)quinolin-4-yl)cyclohexane-1,4-diamine] | 0.1 to 100 nM | 100 to 1000 nM | 0.1 to 100 nM |
| Cn1cnc2ccnc(N[C@H]3CC[C@@H](Nc4cc(C(F)(F)F)nc5ccc(F)cc45)CC3)c21 [Example 23, (1s,4s)-N^1-(6-Fluoro-2-(trifluoromethyl)quinolin-4-yl)-N^4-(3-methyl-3H-imidazo[4,5-c]pyridin-4-yl)cyclohexane-1,4-diamine] | 0.1 to 100 nM | 0.1 to 100 nM | 0.1 to 100 nM |
| FC(F)(F)c1cc(N[C@H]2CCC[C@@H](Nc3nnc4ccccn34)C2)c2cc(Cl)ccc2n1 [Example 24, (1R,3S)-N^1-([1,2,4]Triazolo[4,3-a]pyridin-3-yl)-N^3-(6-chloro-2-(trifluoromethyl)quinolin-4-yl)cyclohexane-1,3-diamine] | 0.1 to 100 nM | 0.1 to 100 nM | 0.1 to 100 nM |

Other lines, results leading:

| IC50 (MRGPRX2 [1]) | IC50 (MRGPRX2 [2]) | IC50 (MRGPRX2 [3]) | SMILES |
| --- | --- | --- | --- |
| 0.1 to 100 nM | 0.1 to 100 nM | 0.1 to 100 nM | FC(F)(F)c1cc(N[C@H]2CCC[C@@H](Nc3nccn4cncc34)C2)c2cc(Cl)ccc2n1 [Example 9, (1S,3R)-N^1-(6-Chloro-2-(trifluoromethyl)quinolin-4-yl)-N^3-(imidazo[1,5-a]pyrazin-8-yl)cyclohexane-1,3-diamine] |
| 0.1 to 100 nM | 0.1 to 100 nM | 0.1 to 100 nM | Cc1ncc2c(N[C@@H]3CCC[C@H](Nc4cc(C(F)(F)F)nc5ccc(Cl)cc45)C3)nccn12 [Example 10, (1S,3R)-N^1-(6-Chloro-2-(trifluoromethyl)quinolin-4-yl)-N^3-(3-methylimidazo[1,5-a]pyrazin-8-yl)cyclohexane-1,3-diamine] |
| 0.1 to 100 nM | 0.1 to 100 nM | 0.1 to 100 nM | FC(F)(F)c1cc(N[C@H]2CC[C@@H](Nc3nccc4ncccc34)CC2)c2cc(Cl)ccc2n1 [Example 13, (1s,4s)-N^1-(6-Chloro-2-(trifluoromethyl)quinolin-4-yl)-N^4-(1,6-naphthyridin-5-yl)cyclohexane-1,4-diamine] |
| 0.1 to 100 nM | 0.1 to 100 nM | 0.1 to 100 nM | Cn1cnc2ccnc(N[C@@H]3CCC[C@H](Nc4cc(C(F)(F)F)nc5ccc(F)cc45)C3)c21 [Example 14, (1S,3R)-N^1-(6-Fluoro-2-(trifluoromethyl)quinolin-4-yl)-N^3-(3-methyl-3H-imidazo[4,5-c]pyridin-4-yl)cyclohexane-1,3-diamine] |
| 0.1 to 100 nM | 0.1 to 100 nM | 0.1 to 100 nM | Cn1ncc2c(N[C@@H]3CCC[C@H](Nc4cc(C(F)(F)F)nc5ccc(Cl)cc45)C3)nccc21 [Example 19, (1S,3R)-N^1-(6-Chloro-2-(trifluoromethyl)quinolin-4-yl)-N^3-(1-methyl-1H-pyrazolo[4,3-c]pyridin-4-yl)cyclohexane-1,3-diamine] |
| 0.1 to 100 nM | 0.1 to 100 nM | 0.1 to 100 nM | Cn1c(C#N)cnc1N[C@@H]1CCC[C@H](Nc2cc(C(F)(F)F)nc3ccc(Cl)cc23)C1 [Example 20, 2-(((1R,3S)-3-((6-Chloro-2-(trifluoromethyl)quinolin-4-yl)amino)cyclohexyl)amino)-1-methyl-1H-imidazole-5-carbonitrile] |
| 0.1 to 100 nM | 0.1 to 100 nM | 0.1 to 100 nM | Cn1c(N[C@@H]2CCC[C@H](Nc3cc(C(F)(F)F)nc4ccc(Cl)cc34)C2)nc2cccnc21 [Example 21, (1S,3R)-N^1-(6-Chloro-2-(trifluoromethyl)quinolin-4-yl)-N^3-(3-methyl-3H-imidazo[4,5-b]pyridin-2-yl)cyclohexane-1,3-diamine] |
| 0.1 to 100 nM | 0.1 to 100 nM | 0.1 to 100 nM | Fc1ccc2nc(C(F)(F)F)cc(N[C@H]3CCC[C@@H](Nc4nccc5ncccc45)C3)c2c1 [Example 25, (1S,3R)-N^1-(6-Fluoro-2-(trifluoromethyl)quinolin-4-yl)-N^3-(1,6-naphthyridin-5-yl)cyclohexane-1,3-diamine] |
